According to ChEMBL document CHEMBL5260859, “Discovery and structure-activity relationship study of 2-piperazinyl-benzothiazole derivatives as potent and selective PPARδ agonists” (Bioorg Med Chem, 2023):

Tests used:
Assay type in all cases: cell-based
[1] = biological target: T1, Peroxisome proliferator-activated receptor alpha (Homo sapiens, UniProt Q07869); assay: Agonist activity at Gal4-fused human PPAR-alpha ligand binding domain expressed in CHO-K1 cells assessed as receptor transactivation incubated for 24 to 48 hrs by luciferase reporter gene assay
T1 sequence (Q07869 whole entry): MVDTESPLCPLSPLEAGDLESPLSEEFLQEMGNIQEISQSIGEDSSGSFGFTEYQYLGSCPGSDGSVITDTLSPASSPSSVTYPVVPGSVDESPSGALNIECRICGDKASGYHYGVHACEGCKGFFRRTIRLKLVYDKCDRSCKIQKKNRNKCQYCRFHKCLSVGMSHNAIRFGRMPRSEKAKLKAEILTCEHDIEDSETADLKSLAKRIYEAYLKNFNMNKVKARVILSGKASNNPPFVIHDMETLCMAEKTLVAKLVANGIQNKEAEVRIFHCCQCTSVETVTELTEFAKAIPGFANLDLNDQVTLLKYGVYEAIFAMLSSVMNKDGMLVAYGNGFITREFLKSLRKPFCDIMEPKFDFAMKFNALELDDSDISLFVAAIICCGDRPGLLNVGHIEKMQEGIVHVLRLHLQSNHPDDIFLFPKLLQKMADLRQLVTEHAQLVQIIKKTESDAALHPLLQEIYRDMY

Mus musculus [2] = species: Mus musculus; assay: Selectivity ratio of EC50 for agonist activity at Gal4-fused mouse PPAR-alpha ligand binding domain expressed in CHO-K1 cells to EC50 for agonist activity at Gal4-fused mouse PPAR-delta ligand binding domain expressed in CHO-K1 cells
[3] = biological target: T2, Peroxisome proliferator-activated receptor alpha (Homo sapiens) (UniProt Q07869); assay: Agonist activity at Gal4-fused human PPAR-alpha ligand binding domain expressed in CHO-K1 cells assessed as receptor transactivation incubated for 24 to 48 hrs by luciferase reporter gene assay relative to control; conditions: time lower 24.0 hrs, time upper […]
T2 sequence (whole entry): T1 sequence (Q07869 whole entry)

Mus musculus [4] = species: Mus musculus; assay: Selectivity ratio of EC50 for agonist activity at Gal4-fused mouse PPAR-gamma ligand binding domain expressed in CHO-K1 cells to EC50 for agonist activity at Gal4-fused mouse PPAR-delta ligand binding domain expressed in CHO-K1 cells
[5] = biological target: T3, Peroxisome proliferator-activated receptor alpha (Mus musculus) (UniProt P23204); assay: Agonist activity at Gal4-fused mouse PPAR-alpha ligand binding domain expressed in CHO-K1 cells assessed as receptor transactivation incubated for 24 to 48 hrs by luciferase reporter gene assay relative to control; conditions: time lower 24.0 hrs, time upper […]
T3 sequence (whole entry): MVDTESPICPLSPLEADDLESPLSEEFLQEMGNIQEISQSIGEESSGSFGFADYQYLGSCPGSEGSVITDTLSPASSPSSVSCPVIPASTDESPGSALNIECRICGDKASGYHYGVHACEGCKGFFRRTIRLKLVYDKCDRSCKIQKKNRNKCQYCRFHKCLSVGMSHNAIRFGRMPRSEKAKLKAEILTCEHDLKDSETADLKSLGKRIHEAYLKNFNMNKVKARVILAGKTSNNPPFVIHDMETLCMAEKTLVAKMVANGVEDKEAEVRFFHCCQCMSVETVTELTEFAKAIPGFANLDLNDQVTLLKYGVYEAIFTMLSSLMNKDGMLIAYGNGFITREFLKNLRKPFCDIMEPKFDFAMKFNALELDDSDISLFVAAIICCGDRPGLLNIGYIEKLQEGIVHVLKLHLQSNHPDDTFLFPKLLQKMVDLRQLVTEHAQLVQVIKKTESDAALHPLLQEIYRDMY

Row | EC50 [1] | Emax [3] | Emax [5] | SMILES | Ratio EC50 (Mus musculus [2]) | Ratio EC50 (Mus musculus [4])
1 | 1800 nM | 6.3% | 9% | Cc1cc(CC(=O)O)cc(CN2CCN(c3nc4ccc(C(F)(F)F)cc4s3)[C@@H](C)C2)c1 | 100 | 69
2 | 1600 nM | 6.3% | 1.7% | Cc1cc(CC(=O)O)cc(CN2CCN(c3nc4ccc(C(F)(F)F)cc4s3)[C@H](C)C2)c1 | 152 | 74
